Results reported in patent US20160067211A1, “PHARMACEUTICAL COMPOSITION” (Eberhard Karls Universitaet Tuebingen Medizinische Fakultaet, priority 2013, published 2016).

How the values were obtained:
[1] = test system: primary human fibroblasts (FF868); experiment: MUH proliferation assay, fibroblasts; type: cell-based; details: 6-PN, 8-PN 0.1 μM to 100 μM; TSA, SAHA 100 μM
Description: (§1) FIG. 5: real time cell monitoring of BLM and SK-MEL-28 melanoma cells treated with 6-PN and 8-PN. (A) BML and SK-MEL-28 cells were treated 24 hours after seeding with different concentrations of 6-PN and 8-PN (20 μM, 50 μM and 100 μM) over a 104 hour time period. The cellular impedance was measured over the entire observation time using the xCELLigence™ SP system and is depicted by the cell index (CI). All CI-values were normalized shortly before the treatment started. […] As a positive control, Triton X-100 0.1% was used to induce cell death. Shown are the mean±SD of three independent experiments, each performed in triplicates (B, C). […] Shown are the mean±SD; the experiments were performed in quadruplicates. (D) The MUH proliferation assay was repeated unter the same treatment conditions on primary human fibroblasts (FF868) and melanocytes (HEM1).
(§2) The cells were seeded in triplicates in 96-well plates at a density of 2,500 cells per well in 50 μl medium (5×10^4 cells per milliliter). After 24 hours, the medium was replaced by medium containing 6-PN, 8-PN (dissolved in DMSO), TSA (dissolved in EtOH) or SAHA (dissolved in DMSO) at the concentrations to be tested with or without the addition of the necrosis inhibitor IM-54 at 5 μM (Calbiochem, Darmstadt, Germany). Cells treated with culture medium without or with DMSO served as controls. The assay was started following an incubation of 24 hours. […] Plates were incubated at 37° C. for 1 hour and measured in a Fluoroskan II (Lab Systems, Helsinki, Finland) with a […]. The intensity of fluorescence indicates the number of viable cells in the wells.
(§3) Next it was asked whether the PNs also influence the proliferation of benign cells. To this end, human fibroblasts (FF) and foreskin melanocytes (HEM1) were treated with the same concentrations of 6-PN and 8-PN, and proliferation was assessed using the proliferation assay as described above.

[2] = test system: foreskin melanocytes (HEM1); experiment: MUH proliferation assay, melanocytes; type: cell-based; details: 6-PN, 8-PN at higher concentrations (0.1 μM to 100 μM tested); TSA, SAHA 100 μM
Description: as §1, §2, §3

[3] = test system: cleaved caspase-3 in SK-MEL-28 melanoma cells; experiment: Western blot for cleaved caspase-3; type: cell-based, human; details: SK-MEL-28, 100 μM
Description: Western blot analysis of SK-MEL-28 melanoma cells treated with 100 μM of 6-PN, 8-PN, SAHA or TSA. EtOH and DMSO were applied as controls.
The following antibodies were used: Anti-Vinculin and Anti-Actin (1:5000, Sigma-Aldrich), Anti-Acetyl-Histon H3 (1:5000, Millipore, Billerica, USA), Anti-Caspase-3 (1:1000), Anti-AKT, Anti-pAKT, Anti-ERK, Anti-pERK, […], Anti-p70S6 Kinase, and Anti-pS6 protein (1:1000), all from Cell Signaling, Frankfurt, Germany), Anti-LC3 (1:5000, Sigma-Aldrich).
To further analyze the type of cell death induced by 6-PN and 8-PN, western blot analyses of SK-MEL-28 melanoma cells were performed 1, 2, 4, 12 and 24 hours after the treatment with 100 μM 6-PN and 8-PN. […] Upon PN treatment an inconsistent expression of oncogenic AKT and phospho-AKT (pAKT) was detected. […] Thus, there was an obvious discrepancy between the expression of pAKT and pS6P. Therefore it was first also looked for the expression of P70S6 kinase and its phosphorylated form. […] Therefore it was next asked whether the S6P could be phosphorylated by a different mechanism. In this respect, activated ERK can phosphorylate the p90 ribosomal S6 kinase (pP90). pP90 also phosphorylates the S6P (in addition to the P70S6 kinase). Since the pP70S6 kinase was absent in the used cells (SK-MEL-28 and BLM), it was hypothesized that the phosphorylation of the S6P was conducted via the pERK/pP90 pathway, independent from the P70S6 signalling. This hypothesis was supported by the parallel down-regulation of the bands for pP90 (Thr359/Ser363) and pS6P 12 hours after the treatment with 6-PN, and the reappearance of both bands after 24 hours (FIG. 8). […] The western blot experiments were repeated with BLM cells under the same treatment conditions and yielded similar results (not shown).

[4] = test system: BLM melanoma cells; experiment: PI/Annexin V staining FACS, BLM; type: cell-based, human; details: 10 μM, 6 hours treatment
Description: (§4) (A) Cell cycle FACS analyses of PI stained BLM and SK-MEL-28 melanoma cells. 100 μM of 8-PN-induced a G2 arrest in both cells. (B) FACS analyses of BLM and SK-MEL-28 melanoma cells treated with 100 μM 6-PN or 8-PN and stained for annexin V/PI; staurosporin was used as control for apoptosis induction and DMSO as vehicle control. […] (C) BLM and SK-MEL-28 melanoma cells were treated with 100 μM of PNs; TSA, SAHA and EMSO were used as controls.
(§5) To further analyze the possibility of apoptosis induction, an extensive apoptosis assay was performed on SK-MEL-28 melanoma cells 4 hours after treatment with 100 μM 6-PN or 8-PN (FIG. 9). […] This was verified by FACS cell cycle analyses to screen for a possible increase of the sub-G1 fraction of cells (apoptotic cells) or for the induction of a G2 arrest (inhibition of proliferation). […] To further differentiate between the induction of apoptosis and/or necrosis an PI/Annexin V staining of SK-MEL-28 and BLM cells was performed 4 hours and 24 hours after the treatment with 6-PN or 8-PN; 10 μM staurosporin (6 hours treatment) was used as positive control for the induction of apoptosis; DMSO treatment was used as vehicle control. The cells were then analyzed by FACS.

[5] = test system: SK-MEL-28 melanoma cells; experiment: PI/Annexin V staining FACS, SK-MEL-28; type: cell-based, human; details: SK-MEL-28, 10 μM, 6 hours treatment
Description: as §4, §5

[6] = test system: BLM melanoma cells; experiment: MUH proliferation assay, BLM; type: cell-based, human; details: addition of 5 μM IM-54 to 6-PN/8-PN treatment
Description: as §1
(§6) The cells were seeded in triplicates in 96-well plates at a density of 2,500 cells per well in 50 μl medium (5×10^4 cells per milliliter). […] Plates were incubated at 37° C. for 1 hour and measured in a Fluoroskan II (Lab Systems, Helsinki, Finland) with a […]. The intensity of fluorescence indicates the number of viable cells in the wells. […]

[7] = test system: SK-MEL-28 melanoma cells; experiment: MUH proliferation assay, SK-MEL-28; type: cell-based, human; details: SK-MEL-28, addition of 5 μM IM-54 to 6-PN/8-PN treatment
Description: as §1, §6

Row | Structure (SMILES) | fibroblast proliferation [1] | melanocyte proliferation [2] | band for cleaved caspase-3 [3] | further results
1 | O=C(CCCCCCC(=O)Nc1ccccc1)NO [SAHA, suberoyl anilide hydroxamic acid] | no reduced proliferation | no reduced proliferation | no additional band | –
2 | CN[C@@H]1C[C@H]2O[C@@](C)([C@@H]1OC)n1c3ccccc3c3c4c(c5c6ccccc6n2c5c31)C(=O)NC4 [staurosporin, reference compound] | – | – | – | annexin V positive (apoptotic) cells ([4]; DMSO control 4.1%): 17.4%; PI positive (nectrotic) cells ([4]; DMSO control 9.1%): 16.6%; annexin V positive (apoptotic) cells ([5]; DMSO control 2.5%): 13.9%; PI positive (nectrotic) cells ([5]; DMSO control 7.9%): 9.3%
3 | CC(/C=C/C(=O)NO)=C\[C@@H](C)C(=O)c1ccc(N(C)C)cc1 [TSA, trichostatin A] | no reduced proliferation | no reduced proliferation | no additional band | –
4 | CCCCCNC1=C(c2cn(C)c3ccccc23)C(=O)N(C)C1=O [IM-54] | – | – | – | decrease of cell death rates at higher PN concentrations [6]: up to 35%; decrease of cell death rates at higher PN concentrations [7]: up to 35%
